Target: T1, 5-HT2B receptor (Homo sapiens, UniProt P41595)
T1 construct: host or cells: CHO-K1
Assay: 5-HT2B receptor binding, 3H-LSD ligand displacement assay
Details: for inhibition at 0.1 µM: 0.1 uM compound; for inhibition at 0.001 µM: 0.001 uM compound; for inhibition at 0.01 µM: 0.01 uM compound
Experimental: 5-HT2B receptor binding (performed at Eurofins Panlabs Taiwan, Ltd.) to human receptor protein expressed in CHO-K1 cells was determined in a ligand displacement assay using ^3H-lysergic acid diethylamide (LSD) as radioligand and ketanserine as a standard reference compound. Data is presented as % displacement of radioligand at indicated compound concentrations, see Table 1 and Table 2.

T1 sequence (P41595 whole entry): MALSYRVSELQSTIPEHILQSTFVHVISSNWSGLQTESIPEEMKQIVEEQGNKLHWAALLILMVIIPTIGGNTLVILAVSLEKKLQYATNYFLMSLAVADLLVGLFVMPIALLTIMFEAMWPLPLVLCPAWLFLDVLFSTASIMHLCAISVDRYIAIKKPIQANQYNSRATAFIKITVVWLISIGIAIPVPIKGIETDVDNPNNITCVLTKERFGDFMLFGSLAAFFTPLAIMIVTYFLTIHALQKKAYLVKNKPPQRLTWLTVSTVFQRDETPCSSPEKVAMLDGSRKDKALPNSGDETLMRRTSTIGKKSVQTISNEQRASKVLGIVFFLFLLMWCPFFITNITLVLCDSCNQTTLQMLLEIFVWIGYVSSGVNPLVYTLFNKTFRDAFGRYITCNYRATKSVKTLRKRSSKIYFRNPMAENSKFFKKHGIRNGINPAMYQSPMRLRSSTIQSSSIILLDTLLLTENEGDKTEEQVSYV

| Compound | inhibition at 0.1 µM [%] | inhibition at 1 µM (1 uM compound) [%] | inhibition at 10 µM (10 uM compound) [%] | inhibition at 0.001 µM [%] | inhibition at 0.01 µM [%] | 5-HT2B receptor binding (% displacement) (1 uM compound) [%] | 5-HT2B receptor binding (% displacement) (10 uM compound) [%] |
| --- | --- | --- | --- | --- | --- | --- | --- |
| N=C(N)N1CCC(c2coc3ccccc23)=N1 [Example 14, 3-(Benzofuran-3-yl)-4,5-dihydro-1H-pyrazole-1-carboximidamide] | 40 | 88 |  |  |  |  |  |
| COc1ccccc1C1=NN(C(=N)N)CC1C (stereo not drawn) [Example 18, 3-(2-Methoxyphenyl)-4-methyl-4,5-dihydro-1H-pyrazole-1-carboximidamide] |  | 89 | 101 |  |  |  |  |
| CC1CN(C(=N)NCC(F)(F)F)N=C1c1ccccc1O (stereo not drawn) [Example 95, 3-(2-Hydroxyphenyl)-4-methyl-N-(2,2,2-trifluoroethyl)-4,5-dihydro-1H-pyrazole-1-carboximidamide] | 96 |  |  | 12 | 70 |  |  |
| COc1c(Cl)cccc1C1=NN(C(=N)N)CC1C (stereo not drawn) [Example 53, 3-(3-Chloro-2-methoxyphenyl)-4-methyl-4,5-dihydro-1H-pyrazole-1-carboximidamide] | 87 | 100 |  |  | 40 |  |  |
| N=C(N)N1CCC(c2ccccc2C(F)(F)F)=N1 [Example 13, 3-(2-(Trifluoromethyl)phenyl)-4,5-dihydro-1H-pyrazole-1-carboximidamide] | 34 | 82 |  |  |  |  |  |
| C[C@H]1CN(C(=N)NCc2ccccc2)N=C1c1cccc(Cl)c1O (single isomer, unassigned) [Example 77, (S)*—N-Benzyl-3-(3-chloro-2-hydroxyphenyl)-4-methyl-4,5-dihydro-1H-pyrazole-1-carboximidamide] | 88 |  |  | 2 | 28 |  |  |
| (R)-3-(2-Hydroxyphenyl)-4-methyl-4,5-dihydro-1H-pyrazole-1-carboximidamide [Example 36] |  |  |  |  |  | 90 | 99 |
| CC1CN(C(=N)NCc2ccccc2Cl)N=C1c1ccccc1O (stereo not drawn) [Example 56, N-(2-Chlorobenzyl)-3-(2-hydroxyphenyl)-4-methyl-4,5-dihydro-1H-pyrazole-1-carboximidamide] |  |  |  | 52 | 95 |  |  |
| CC1CN(C(=N)Nc2ccc(F)cc2)N=C1c1cccc(Cl)c1O (stereo not drawn) [Example 109, 3-(3-Chloro-2-hydroxyphenyl)-N-(4-fluorophenyl)-4-methyl-4,5-dihydro-1H-pyrazole-1-carboximidamide] | 104 |  |  | 72 | 99 |  |  |
| CC1CN(C(=N)N)N=C1c1cccc(F)c1O (stereo not drawn) [Example 48, 3-(3-Fluoro-2-hydroxyphenyl)-4-methyl-4,5-dihydro-1H-pyrazole-1-carboximidamide] | 85 | 95 |  |  | 54 |  |  |
| COc1ccc(CNC(=N)N2CC(C)C(c3ccccc3O)=N2)cc1OC (stereo not drawn) [Example 60, N-(3,4-Dimethoxybenzyl)-3-(2-hydroxyphenyl)-4-methyl-4,5-dihydro-1H-pyrazole-1-carboximidamide] |  |  |  | 6 | 28 |  |  |
| CC1CN(C(=N)NC2CC2)N=C1c1cccc(Cl)c1O (stereo not drawn) [Example 87, 3-(3-Chloro-2-hydroxyphenyl)-N-cyclopropyl-4-methyl-4,5-dihydro-1H-pyrazole-1-carboximidamide] | 100 |  |  | 24 | 84 |  |  |
| CC1CN(C(=N)NCc2ccc(Cl)c(Cl)c2)N=C1c1ccccc1O (stereo not drawn) [Example 58, N-(3,4-Dichlorobenzyl)-3-(2-hydroxyphenyl)-4-methyl-4,5-dihydro-1H-pyrazole-1-carboximidamide] |  |  |  | 2 | 52 |  |  |
| COc1ccc(NC(=N)N2CC(C)C(c3ccccc3OCc3ccccc3)=N2)cc1 (stereo not drawn) [Example 104, 3-(2-(Benzyloxy)phenyl)-N-(4-methoxyphenyl)-4-methyl-4,5-dihydro-1H-pyrazole-1-carboximidamide] | 77 |  |  | -9 | 33 |  |  |
| N=C(N)N1CCC(c2ccc3ccccc3c2)=N1 [Example 12, 3-(Naphthalen-2-yl)-4,5-dihydro-1H-pyrazole-1-carboximidamide, reference compound] | 18 | 76 |  |  |  |  |  |
| CC1CN(C(=N)NCC(F)(F)C(F)(F)C(F)(F)F)N=C1c1cccc(Cl)c1O (stereo not drawn) [Example 107, 3-(3-Chloro-2-hydroxyphenyl)-N-(2,2,3,3,4,4,4-heptafluorobutyl)-4-methyl-4,5-dihydro-1H-pyrazole-1-carboximidamide] | 100 |  |  | 51 | 91 |  |  |
| COc1c(Cl)cccc1C1=NN(C(=N)Nc2ccc(Cl)cc2)CC1C (stereo not drawn) [Example 110, 3-(3-Chloro-2-methoxyphenyl)-N-(4-chlorophenyl)-4-methyl-4,5-dihydro-1H-pyrazole-1-carboximidamide] | 97 |  |  | 41 | 83 |  |  |
| CC1(C)CN(C(=N)N)N=C1c1ccccc1O [Example 32, 3-(2-Hydroxyphenyl)-4,4-dimethyl-4,5-dihydro-1H-pyrazole-1-carboximidamide] | 28 | 79 |  |  |  |  |  |
| N=C(N)N1CCC(c2ccccc2N)=N1 [Example 31, 3-(2-Aminophenyl)-4,5-dihydro-1H-pyrazole-1-carboximidamide] | 21 | 69 |  |  |  |  |  |
| CNC(=N)N1CCC(c2ccccc2Cl)=N1 [Example 19, 3-(2-Chlorophenyl)-N-methyl-4,5-dihydro-1H-pyrazole-1-carboximidamide] | 34 | 79 |  |  |  |  |  |
| COc1c(Cl)cccc1C1=NN(C(=N)NC2CC2)CC1C (stereo not drawn) [Example 86, 3-(3-Chloro-2-methoxyphenyl)-N-cyclopropyl-4-methyl-4,5-dihydro-1H-pyrazole-1-carboximidamide] | 83 |  |  | -14 | 29 |  |  |
| CC1CN(C(=N)Nc2ccccc2)N=C1c1ccccc1O (stereo not drawn) [Example 97, 3-(2-Hydroxyphenyl)-4-methyl-N-phenyl-4,5-dihydro-1H-pyrazole-1-carboximidamide] | 105 |  |  | 62 | 99 |  |  |
| COc1c(Cl)cccc1C1=NN(C(=N)NC2CCCCC2)CC1C (stereo not drawn) [Example 84, 3-(3-Chloro-2-methoxyphenyl)-N-cyclohexyl-4-methyl-4,5-dihydro-1H-pyrazole-1-carboximidamide] | 94 |  |  | 11 | 63 |  |  |
| CC(C)c1ccccc1C1=NN(C(=N)N)CC1 [Example 8, 3-(2-Isopropylphenyl)-4,5-dihydro-1H-pyrazole-1-carboximidamide] | 80 | 95 |  |  |  |  |  |
| CC1CN(C(=N)N)N=C1c1cccc(Cl)c1O (stereo not drawn) [Example 54, 3-(3-Chloro-2-hydroxyphenyl)-4-methyl-4,5-dihydro-1H-pyrazole-1-carboximidamide] | 95 | 101 |  |  | 81 |  |  |
| COc1ccccc1C1=NN(C(=N)Nc2ccc(Cl)cc2)CC1C (stereo not drawn) [Example 102, N-(4-Chlorophenyl)-3-(2-methoxyphenyl)-4-methyl-4,5-dihydro-1H-pyrazole-1-carboximidamide] | 92 |  |  | 17 | 44 |  |  |

— US10544103B2, “5-HT2 antagonists” (ANAMAR AB, priority 2015, dated 2020)
